Measurements: the supplement of paper PMC11061612

What was measured:
DSH1 (Bladder Carcinoma) = assay: combination Emax (second highest fraction inhibited in the dose matrix, 72 h); higher = more inhibition; extreme values may be limits of the assay
Method in brief: (§1)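 After 24 hours at 37°C and 5% CO2 in 1536-well plates, cells in DMEM/F12 or RPMI plus 10% FBS received two-drug dose matrices for 72 hours. Viability came from CellTiter-Glo 2.0 luminescence and was scaled as inhibition, anchored at 0 by vehicle wells and at 1 by blank wells. Combination Emax is taken as the second-highest inhibition in the matrix, and Bliss excess as the observed combination effect less EA + EB − EA·EB, with EA and EB the single-agent effects.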

[1] = system: SUIT-2 (Pancreatic Carcinoma); assay: as above
Method in brief: as §1

[2] = system: HT-29 (Colorectal Carcinoma); assay: as above
Method in brief: as §1

[3] = system: LU-99A (Non-Small Cell Lung Carcinoma); assay: as above
Method in brief: as §1

[4] = system: KARPAS-1106P (B-Cell Non-Hodgkin's Lymphoma); assay: as above
Method in brief: as §1

[5] = system: HPAC (Pancreatic Carcinoma); assay: as above
Method in brief: as §1

[6] = system: NCI-H1299 (Non-Small Cell Lung Carcinoma); assay: as above
Method in brief: as §1

[7] = system: DB (B-Cell Non-Hodgkin's Lymphoma); assay: as above
Method in brief: as §1

[8] = system: SW1783 (Low Grade Glioma); assay: as above
Method in brief: as §1

[9] = system: MDA-MB-231 (Breast Carcinoma); assay: Bliss excess, mean over the matrix (fraction); higher = more synergy
Method in brief: as §1

[10] = system: CFPAC-1 (Pancreatic Carcinoma); assay: as above
Method in brief: as §1

[11] = system: IHH-4 (Thyroid Gland Carcinoma); assay: as above
Method in brief: as §1

[12] = system: MDA-MB-157 (Breast Carcinoma); assay: as above
Method in brief: as §1

[13] = system: 697 (B-Lymphoblastic Leukemia); assay: as above
Method in brief: as §1

CAL-78 (Chondrosarcoma) = assay: as above
Method in brief: as §1

[14] = system: KM-H2 (Hodgkin's Lymphoma); assay: as above
Method in brief: as §1

J82 (Bladder Carcinoma) = assay: as above
Method in brief: as §1

RH-1 (Ewing's Sarcoma) = assay: as above
Method in brief: as §1

[15] = system: G-292-Clone-A141B1 (Osteosarcoma); assay: as above
Method in brief: as §1

ES7 (Ewing's Sarcoma) = assay: as above
Method in brief: as §1
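Wherever Bliss excess, mean over the matrix is given: after 72 h of two-drug dosing.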

Structure (SMILES) | combination Emax (DSH1 (Bladder Carcinoma)) | combination Emax [1] | combination Emax [2] | combination Emax [3] | combination Emax [4] | combination Emax [5] | combination Emax [6] | combination Emax [7] | combination Emax [8] | Bliss excess [9] | Bliss excess [10] | Bliss excess [11] | Bliss excess [12] | Bliss excess [13] | Bliss excess (CAL-78 (Chondrosarcoma)) | Bliss excess [14] | Bliss excess (J82 (Bladder Carcinoma)) | Bliss excess (RH-1 (Ewing's Sarcoma)) | Bliss excess [15] | Bliss excess (ES7 (Ewing's Sarcoma))
Cc1c2c(nn1C)CSCc1cc(n(C)n1)CSc1cc(c3ccccc3c1)OCCCc1c(C(=O)O)n(C)c3c-2c(Cl)ccc13 [AZD5991] + Cc1cc2ncnn2cc1Nc1ncc2c(n1)n(C1CCOCC1)c(=O)n2C [AZD7648] (first compound max 1 µM, 7x7, partner max 10 µM) | 0.67 | 0.179 | 0.223 | 0.414 | 0.939 | 0.254 | 0.34 | 0.995 | 0.256 | -0.0397 | -0.002 | -0.0281 | -0.0214 | -0.0603 | -0.0448 | 0.0203 | -0.0231 | -0.0036 | -0.0274 | -0.028
COc1cccc(OCCCN)c1-c1cc(Nc2cnc(C#N)cn2)n[nH]1 [Prexasertib] + CN(C)CCCOc1ccc(-c2ccc3ncc4c(c3c2)n(C2CCOCC2)c(=O)n4C)cn1 [AZD0156] (first compound max 1 µM, 7x7, partner max 1 µM) | 0.82 | 0.682 | 0.858 | 0.823 | 0.919 | 0.795 | 0.747 | 0.771 | 0.445 | -0.0306 | 0.0232 | 0.0504 | -0.0226 | -0.0087 | -0.0165 | -0.0337 | 0.0036 | 0.0241 | -0.0849 | -0.0329
CN(CCO)CC[C@H](CSc1ccccc1)Nc1ccc(S(=O)(=O)NC(=O)c2ccc(N3CCC([C@@H](O)c4ccccc4-c4ccc(Cl)cc4)CC3)cc2)cc1S(=O)(=O)C(F)(F)F [AZD4320] + Cn1cnc2c(F)c(Nc3ccc(Br)cc3Cl)c(C(=O)NOCCO)cc21 [Selumetinib] (first compound max 1 µM, 7x7, partner max 3 µM) | 0.565 | 0.406 | 0.695 | 0.87 | 0.769 | 0.865 | 0.3 | 0.953 | 0.706 | -0.0013 | 0.0453 | 0.0185 | 0.0259 | 0.0943 | -0.0388 | 0.0106 | -0.0144 | 0.0015 | -0.0021 | 0.026
CS(=O)(=O)CCNCc1ccc(-c2ccc3ncnc(Nc4ccc(OCc5cccc(F)c5)c(Cl)c4)c3c2)o1 [Lapatinib] + C[C@@H](Oc1cc(-c2cnn(C3CCNCC3)c2)cnc1N)c1c(Cl)ccc(F)c1Cl [Crizotinib] (first compound max 10 µM, 7x7, partner max 10 µM) | 1 | 0.657 | 0.942 | 0.603 | 0.938 | 0.929 | 0.492 | 0.953 | 0.248 | -0.042 | -0.077 | -0.0634 | -0.0086 | 0.0166 | -0.072 | 0.0018 | -0.0317 | -0.0553 | -0.0506 | -0.0214
Cc1c2c(nn1C)CSCc1cc(n(C)n1)CSc1cc(c3ccccc3c1)OCCCc1c(C(=O)O)n(C)c3c-2c(Cl)ccc13 [AZD5991] + CC1(C)CCC(CN2CCN(c3ccc(C(=O)NS(=O)(=O)c4ccc(NCC5CCOCC5)c([N+](=O)[O-])c4)c(Oc4cnc5[nH]ccc5c4)c3)CC2)=C(c2ccc(Cl)cc2)C1 [Venetoclax] (first compound max 1 µM, 7x7, partner max 1 µM) | 0.964 | 0.209 | 0.189 | 0.111 | 0.935 | 0.244 | 0.258 | 1 | 0.444 | 0.0126 | -0.0112 | 0.0037 | 0.004 | -0.0564 | -0.0118 | -0.0094 | -0.0232 | 0.0491 | -0.0292 | 0.102
CN(CCO)CC[C@H](CSc1ccccc1)Nc1ccc(S(=O)(=O)NC(=O)c2ccc(N3CCC([C@@H](O)c4ccccc4-c4ccc(Cl)cc4)CC3)cc2)cc1S(=O)(=O)C(F)(F)F [AZD4320] + C[C@@H](Nc1cc(F)cc(F)c1)c1cc(C(=O)N(C)C)cc2c(=O)cc(N3CCOCC3)oc12 [AZD8186] (first compound max 1 µM, 7x7, partner max 3 µM) | 0.404 | 0.245 | 0.278 | 0.765 | 0.951 | 0.562 | 0.297 | 0.921 | 0.663 | 0.0174 | 0.0585 | 0.0438 | 0.0338 | -0.003 | 0.0323 | 0.0237 | -0.0061 | 0.0588 | -0.0014 | 0.136
CCN(CCO)CCCOc1ccc2c(Nc3cc(CC(=O)Nc4cccc(F)c4)[nH]n3)ncnc2c1 [AZD2811] + C=CCn1c(=O)c2cnc(Nc3ccc(N4CCN(C)CC4)cc3)nc2n1-c1cccc(C(C)(C)O)n1 [AZD1775] (first compound max 1 µM, partner max 1 µM) | 0.324 | 0.625 | 0.82 | 0.585 | 0.842 | 0.643 | 0.763 | 0.867 | 0.193 | 0.009 | -0.0695 | 0.0451 | 0.0291 | 0.0164 | 0.0636 | 0.0339 | 0.0001 | -0.0163 | -0.0368 | -0.0468
COc1nnc2ccc(N3CCC(c4ccc(OCCN5CCN(C)C(=O)[C@H]5C)cc4)CC3)nn12 [AZD5153] + CCN(CCO)CCCOc1ccc2c(Nc3cc(CC(=O)Nc4cccc(F)c4)[nH]n3)ncnc2c1 [AZD2811] (first compound max 1 µM, 7x7, partner max 1 µM) | 0.651 | 0.436 | 0.72 | 0.505 | 0.741 | 0.649 | 0.71 | 0.722 | 0.328 | -0.0353 | -0.088 | 0.0167 | -0.0004 | -0.0118 | -0.0564 | 0 | -0.0148 | 0.0025 | -0.0263 | -0.0372
COc1cccc(OCCCN)c1-c1cc(Nc2cnc(C#N)cn2)n[nH]1 [Prexasertib] + C[C@@H]1COCCN1C2=NC(=NC(=C2)C3(CC3)[S@](=N)(=O)C)C4=C5C=CNC5=NC=C4 [AZD6738] (first compound max 1 µM, 7x7, partner max 10 µM) | 0.852 | 0.747 | 0.857 | 0.767 | 0.905 | 0.769 | 0.732 | 0.748 | 0.496 | 0.0988 | -0.0284 | 0.0132 | -0.0256 | 0.0031 | -0.0331 | -0.0214 | -0.0198 | 0.0014 | 0.0477 | -0.0416
CC1(C)CCC(CN2CCN(c3ccc(C(=O)NS(=O)(=O)c4ccc(NCC5CCOCC5)c([N+](=O)[O-])c4)c(Oc4cnc5[nH]ccc5c4)c3)CC2)=C(c2ccc(Cl)cc2)C1 [Venetoclax] + Cc1cc2ncnn2cc1Nc1ncc2c(n1)n(C1CCOCC1)c(=O)n2C [AZD7648] (first compound max 1 µM, 7x7, partner max 10 µM) | 0.187 | 0.198 | 0.205 | 0.404 | 0.458 | 0.288 | 0.224 | 0.957 | 0.237 | 0.0192 | -0.0359 | -0.027 | -0.0154 | -0.0154 | 0.0236 | -0.0322 | -0.0202 | 0.0029 | -0.037 | -0.0735
CN(C)CCCOc1ccc(-c2ccc3ncc4c(c3c2)n(C2CCOCC2)c(=O)n4C)cn1 [AZD0156] + C[C@@H]1COCCN1C2=NC(=NC(=C2)C3(CC3)[S@](=N)(=O)C)C4=C5C=CNC5=NC=C4 [AZD6738] (first compound max 1 µM, 7x7, partner max 10 µM) | 0.823 | 0.71 | 0.823 | 0.784 | 0.752 | 0.761 | 0.746 | 0.628 | 0.257 | 0.0105 | -0.0137 | 0.0537 | -0.0103 | 0.0085 | -0.0694 | 0.0658 | 0 | 0.0731 | -0.0091 | 0.0225
COc1cc2ncnc(Nc3ccc(F)c(Cl)c3)c2cc1OCCCN1CCOCC1 [Gefitinib] + CC(C)n1c(=O)n(C)c2cnc3cc(F)c(-c4ccc(OCCCN5CCCCC5)nc4)cc3c21 [AZD1390] (first compound max 10 µM, 7x7, partner max 0.3 µM) | 0.858 | 0.111 | 0.315 | 0.154 | 0.267 | 0.222 | 0.0669 | 0.328 | 0.0328 | -0.0659 | -0.0676 | -0.043 | -0.0453 | -0.0787 | -0.0625 | -0.0312 | -0.12 | -0.0399 | -0.0548 | -0.0916
COc1cccc2c1C(=O)c1c(O)c3c(c(O)c1C2=O)C[C@@](O)(C(=O)CO)C[C@@H]3O[C@H]1C[C@H](N)[C@H](O)[C@H](C)O1 [Doxorubicin] + Cc1cc2ncnn2cc1Nc1ncc2c(n1)n(C1CCOCC1)c(=O)n2C [AZD7648] (first compound max 1 µM, 7x7, partner max 10 µM) | 0.86 | 0.646 | 0.657 | 0.751 | 0.988 | 0.633 | 0.66 | 0.896 | 0.481 | -0.0124 | 0.0253 | 0.109 | 0.0033 | 0.101 | 0.0132 | 0.116 | 0.0106 | 0.163 | -0.0023 | 0.0997
